According to patent US8309558B2, “Compounds for the treatment of hepatitis C” (Bristol-Myers Squibb Company, priority 2008, dated 2012):

Key:
[1] = biological target: T1, HCV NS5B RdRp genotype 1b (Hepatitis C virus genotype 1b, UniProt Q9WMX2); test: Standard HCV NS5B RdRp enzyme assay; type: biochemical; details: Table 1b; HCV NS5B RdRp genotype 1b; read-out: IC50
T1 construct: The protein was expressed with an 18 amino acid C-terminal truncation to enhance the solubility; made in house; host or cells: E. coli BL21(DE3), pET21a vector
Outline: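 Radiometric SPA measuring 3H-UMP incorporation on polyA/biotin-oligo-dT12 (6 nM/180 nM), 0.29 μM total UTP. Enzyme: NS5B 1b lacking last 18 residues, 28 nM final, 30° C for 60 min in 20 mM Hepes pH 7.5, 2.5 mM MgCl2, 2% DMSO. IC50 from seven-point curves.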

[2] = system: HCV replicon cells; test: HCV replicon FRET / luciferase assay (96-well plates); type: cell-based; details: Hepatitis C virus, Table 1b; HCV replicon; read-out: EC50
Outline: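 Percent activity is background-subtracted signal relative to untreated cell wells, with background taken from maximal protease-inhibitor wells. Cytotoxicity is Alamar blue fluorescence relative to controls. Replicon inhibition was read by NS3 FRET peptide cleavage (340/490 nm) or luciferase.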

T1 sequence (Q9WMX2 2420-2992): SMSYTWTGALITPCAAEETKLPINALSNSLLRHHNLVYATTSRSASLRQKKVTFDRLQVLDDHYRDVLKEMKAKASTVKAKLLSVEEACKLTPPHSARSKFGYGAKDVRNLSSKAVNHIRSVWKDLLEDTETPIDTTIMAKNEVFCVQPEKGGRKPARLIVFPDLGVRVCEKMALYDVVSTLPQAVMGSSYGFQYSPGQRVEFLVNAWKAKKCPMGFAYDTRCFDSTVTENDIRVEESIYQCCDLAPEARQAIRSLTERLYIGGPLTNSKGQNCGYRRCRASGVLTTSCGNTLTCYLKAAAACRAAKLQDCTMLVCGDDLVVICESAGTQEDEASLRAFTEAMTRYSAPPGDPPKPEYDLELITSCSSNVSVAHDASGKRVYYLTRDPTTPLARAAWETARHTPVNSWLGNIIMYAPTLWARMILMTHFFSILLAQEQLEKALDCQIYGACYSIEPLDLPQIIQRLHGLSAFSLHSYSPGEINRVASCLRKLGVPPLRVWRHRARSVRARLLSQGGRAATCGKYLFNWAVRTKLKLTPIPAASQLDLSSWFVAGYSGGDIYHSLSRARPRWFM

| SMILES | IC50 [1] | EC50 [2] |
| --- | --- | --- |
| CNC(=O)c1c(-c2ccc(F)cc2)oc2ccc(-c3cc(NC(=O)OC(C)(C)C)cc(C(=O)NCC(C)C)c3)cc12 | 250 to 1000 nM | < 250 nM |
| CNC(=O)c1c(-c2ccc(F)cc2)oc2ccc(-c3ccc(-c4ccc5cc[nH]c5c4)c(C(=O)NCC(C)C)c3)cc12 | 250 to 1000 nM | < 250 nM |
| CNC(=O)c1c(-c2ccc(F)cc2)oc2ccc(-c3ccc(-c4ccccc4Cl)c(C(=O)NCC(C)C)c3)cc12 | < 250 nM | < 250 nM |
| CNC(=O)c1c(-c2ccc(F)cc2)oc2ccc(-c3ccc(-c4ccccc4C(N)=O)c(C(=O)NCC(C)C)c3)cc12 | < 250 nM | < 250 nM |
| CNC(=O)c1c(-c2ccc(F)cc2)oc2ccc(-c3ccc(-c4ccccc4NC(C)=O)c(C(=O)NCC(C)C)c3)cc12 | 250 to 1000 nM | 1000 to 10000 nM |
| CNC(=O)c1c(-c2ccc(F)cc2)oc2ccc(-c3ccc(-c4ccccc4COC)c(C(=O)NCC(C)C)c3)cc12 | 250 to 1000 nM | < 250 nM |
| CNC(=O)c1c(-c2ccc(F)cc2)oc2ccc(-c3ccc(-c4cccc(CC#N)c4)c(C(=O)NCC(C)C)c3)cc12 | < 250 nM | < 250 nM |
| CCNC(=O)c1cccc(-c2ccc(-c3ccc4oc(-c5ccc(F)cc5)c(C(=O)NC)c4c3)cc2C(=O)NCC(C)C)c1 | < 250 nM | < 250 nM |
| CNC(=O)c1c(-c2ccc(F)cc2)oc2ccc(-c3ccc(-c4cccc(-c5ccccc5)c4)c(C(=O)NCC(C)C)c3)cc12 | > 10000 nM | 250 to 1000 nM |
| CNC(=O)c1c(-c2ccc(F)cc2)oc2ccc(-c3cccc(-c4nc(C(C)C)no4)c3)cc12 | > 1390 nM | 250 to 1000 nM |
| CNC(=O)c1c(-c2ccc(F)cc2)oc2ccc(-c3cccc(-c4nc(-c5ccccc5)no4)c3)cc12 | > 10000 nM | < 250 nM |
| CNC(=O)c1c(-c2ccc(F)cc2)oc2ccc(-c3cc(OCC4CCC4)cc(C(=O)NCC(C)C)c3)cc12 | > 10000 nM | 1000 to 10000 nM |
| CNC(=O)c1c(-c2ccc(F)cc2)oc2ccc(-c3cc(OCc4nnc(C)o4)cc(C(=O)NCC(C)C)c3)cc12 | < 250 nM | 1000 to 10000 nM |
| CNC(=O)c1c(-c2ccc(F)cc2)oc2ccc(-c3cc(OCCn4cncn4)cc(C(=O)NCC(C)C)c3)cc12 | 250 to 1000 nM | 1000 to 10000 nM |
| CNC(=O)c1c(-c2ccc(F)cc2)oc2ccc(-c3cc(OCC#N)cc(C(=O)NCC(C)C)c3)cc12 | < 250 nM | < 250 nM |
| CNC(=O)c1c(-c2ccc(F)cc2)oc2ccc(-c3cccc(C(=O)NC4(c5ccccn5)CC4)c3F)cc12 | < 250 nM | < 250 nM |
| CNC(=O)c1c(-c2ccc(F)cc2)oc2ccc(-c3cc(C(=O)NC4(c5ccccn5)CC4)ccc3C(F)(F)F)cc12 | < 250 nM | < 250 nM |
| CNC(=O)c1c(-c2ccc(F)cc2)oc2ccc(-c3cc(C(=O)NC4(c5ccccc5)CC4)ccc3OCCN(C)C)cc12 | < 250 nM | < 250 nM |
| CNC(=O)c1c(-c2ccc(F)cc2)oc2ccc(-c3cc(C(=O)NC4(c5ccccc5)CC4)ccc3OCCO)cc12 | < 250 nM | < 250 nM |
| CNC(=O)c1c(-c2ccc(F)cc2)oc2ccc(-c3cc(C(=O)NC4(c5ccccc5)CC4)ccc3OCC(N)=O)cc12 | < 250 nM | < 250 nM |

| SMILES | IC50 [1] | EC50 [2] |
| --- | --- | --- |
| CNC(=O)c1c(-c2ccc(F)cc2)oc2ccc(-c3cc(C(=O)NC4(c5ccccc5)CC4)ccc3OCCN)cc12 | < 250 nM | < 250 nM |
| CNC(=O)c1c(-c2ccc(F)cc2)oc2ccc(-c3cc(C(=O)NC4(c5ccccn5)CC4)ccc3OC)cc12 | < 250 nM | < 250 nM |
| CNC(=O)c1c(-c2ccc(F)cc2)oc2ccc(-c3cc(F)cc(C(=O)NC4(c5ccccn5)CC4)c3)cc12 | < 250 nM | < 250 nM |
| CNC(=O)c1c(-c2ccc(F)cc2)oc2ccc(-c3cc(C(=O)NC4(c5ccccn5)CC4)c(OC)cc3OC)cc12 | < 250 nM | < 250 nM |
| CNC(=O)c1c(-c2ccc(F)cc2)oc2ccc(-c3ccc(Cl)c(C(=O)NC4(c5ccccn5)CC4)c3)cc12 | 250 to 1000 nM | > 10000 nM |
| CNC(=O)c1c(-c2ccc(F)cc2)oc2ccc(-c3cc(C(=O)NC4(c5ccccn5)CC4)ccc3OCC(N)=O)cc12 | < 250 nM | < 250 nM |
| CNC(=O)c1c(-c2ccc(F)cc2)oc2ccc(-c3cc(C(=O)NC4(c5ccccn5)CC4)ccc3OCCN(C)C)cc12 | < 250 nM | < 250 nM |
| CNC(=O)c1c(-c2ccc(F)cc2)oc2ccc(-c3cc(C(=O)NC4(c5nnc(-c6cccnc6)[nH]5)CC4)ccc3C)cc12 | < 250 nM | < 250 nM |
| CNC(=O)c1c(-c2ccc(F)cc2)oc2ccc(-c3cc(C(=O)NC4(c5nnc(-c6ccncc6)[nH]5)CC4)ccc3C)cc12 | < 250 nM | < 250 nM |
| CNC(=O)c1c(-c2ccc(F)cc2)oc2ccc(-c3cc(C(=O)NC4(c5nnc(-c6ccccc6Cl)[nH]5)CC4)ccc3C)cc12 | < 250 nM | < 250 nM |
| CNC(=O)c1c(-c2ccc(F)cc2)oc2ccc(-c3cc(C(=O)NC4(c5nnc(-c6cccc(OC)c6)[nH]5)CC4)ccc3C)cc12 | < 250 nM | < 250 nM |
| CNC(=O)c1c(-c2ccc(F)cc2)oc2ccc(-c3cc(C(=O)NC4(c5nnc(-c6cccc(Cl)c6)[nH]5)CC4)ccc3C)cc12 | < 250 nM | < 250 nM |
| CNC(=O)c1c(-c2ccc(F)cc2)oc2ccc(-c3cc(C(=O)NC4(c5nnc(-c6ccc(Cl)cc6)[nH]5)CC4)ccc3C)cc12 | 250 to 1000 nM | < 250 nM |
| CNC(=O)c1c(-c2ccc(F)cc2)oc2ccc(-c3cc(C(=O)NC4(c5nnc(C(N)=O)[nH]5)CC4)ccc3C)cc12 | < 250 nM | 250 to 1000 nM |
| CNC(=O)c1c(-c2ccc(F)cc2)oc2ccc(-c3cc(C(=O)NC4(c5nnc(-c6ccc(OC)cc6)[nH]5)CC4)ccc3C)cc12 | < 250 nM | < 250 nM |
| CNC(=O)c1c(-c2ccc(F)cc2)oc2ccc(-c3cc(C(=O)NC4(c5nnc(C(C)C)[nH]5)CC4)ccc3C)cc12 | < 250 nM | < 250 nM |
| CNC(=O)c1c(-c2ccc(F)cc2)oc2ccc(-c3cc(C(=O)NC4(c5nnc(-c6ccccn6)[nH]5)CC4)ccc3C)cc12 | < 250 nM | < 250 nM |
| CNC(=O)c1c(-c2ccc(F)cc2)oc2ccc(-c3cc(C(=O)NC4(c5nnc(C(F)(F)F)[nH]5)CC4)ccc3C)cc12 | < 250 nM | < 250 nM |
| CNC(=O)c1c(-c2ccc(F)cc2)oc2ccc(-c3cc(C(=O)NC4(c5coc(C)n5)CC4)ccc3C)cc12 | < 250 nM | < 250 nM |
| CNC(=O)c1c(-c2ccc(F)cc2)oc2ccc(-c3cc(C(=O)NC4(c5ccccn5)CC4)ccc3OCCN)cc12 | < 20 nM | < 250 nM |

| SMILES | IC50 [1] | EC50 [2] |
| --- | --- | --- |
| CNC(=O)c1c(-c2ccc(F)cc2)oc2ccc(-c3cc(C(=O)NC4(c5ccccn5)CC4)c(OC(C)C)cc3C)cc12 | < 250 nM | < 250 nM |
| CNC(=O)c1c(-c2ccc(F)cc2)oc2ccc(-c3ccc(-c4ccccc4C(N)=O)c(C(=O)NC4(c5ccccn5)CC4)c3)cc12 | < 250 nM | < 250 nM |
| CNC(=O)c1c(-c2ccc(F)cc2)oc2ccc(-c3cc(C(=O)NC4(c5ccccn5)CC4)ccc3OCCO)cc12 | < 250 nM | < 250 nM |
| CNC(=O)c1c(-c2ccc(F)cc2)oc2ccc(-c3cc(C(=O)NC4(c5ccccn5)CC4)cc(O)c3C)cc12 | < 250 nM | < 250 nM |
| CNC(=O)c1c(-c2ccc(F)cc2)oc2ccc(-c3c(C)ccc(C(=O)NC4(c5ccccn5)CC4)c3F)cc12 | < 20 nM | < 250 nM |
| CNC(=O)c1c(-c2ccc(F)cc2)oc2ccc(-c3cc(C(=O)NC(C)(C)C)c(OC)cc3C)c(F)c12 | < 250 nM | < 250 nM |
| CCC(NC(=O)c1cc(-c2ccc3oc(-c4ccc(F)cc4)c(C(=O)NC)c3c2F)c(C)cc1OC)c1ncccn1 (centres unmarked) | < 250 nM | < 250 nM |
| CNC(=O)c1c(-c2ccc(F)cc2)oc2ccc(-c3cc(C(=O)NC4(c5ncccn5)CC4)c(OC)cc3C)c(F)c12 | < 250 nM | < 250 nM |
| CNC(=O)c1c(-c2ccc(F)cc2)oc2ccc(-c3cc(C(=O)NC4(c5ncccn5)CC4)c(OC)cc3C)cc12 | < 250 nM | < 250 nM |
| CNC(=O)c1c(-c2ccc(F)cc2)oc2ccc(-c3cc(C(=O)NC4(c5ccn(C)n5)CC4)ccc3C)cc12 | < 20 nM | < 250 nM |
| CNC(=O)c1c(-c2ccc(F)cc2)oc2ccc(-c3cc(C(=O)NC4(c5coc(C)n5)CC4)c(OC)cc3C)cc12 | < 250 nM | < 250 nM |
| CNC(=O)c1c(-c2ccc(F)cc2)oc2ccc(-c3cc(C(=O)NC4(c5ccn(C)n5)CC4)c(OC)cc3C)cc12 | < 250 nM | < 250 nM |
| CNC(=O)c1c(-c2ccc(F)cc2)oc2ccc(-c3cc(C(=O)NC4(c5cc(C)on5)CC4)c(OC)cc3C)cc12 | < 250 nM | < 250 nM |
| CNC(=O)c1c(-c2ccc(F)cc2)oc2ccc(-c3cc(C(=O)NC4(c5ccccn5)CC4)c(-c4ccccc4Cl)cc3C)cc12 | < 250 nM | < 250 nM |
| CNC(=O)c1c(-c2ccc(F)cc2)oc2ccc(-c3cc(C(=O)O)c(C)cc3C)c(F)c12 | 1000 to 10000 nM | > 10000 nM |
| CNC(=O)c1c(-c2ccc(F)cc2)oc2ccc(-c3cc(C(=O)NC4(c5ccccn5)CC4)c(OC)cc3OCC(N)=O)cc12 | < 20 nM | < 250 nM |
| CNC(=O)c1c(-c2ccc(F)cc2)oc2ccc(-c3cc(C(=O)NC4(c5ncccn5)CC4)c(C)cc3C)c(F)c12 | 250 to 1000 nM | < 250 nM |
| CNC(=O)c1c(-c2ccc(F)cc2)oc2ccc(-c3cc(C(=O)NC4(c5ncccn5)CC4)c(C)cc3C)cc12 | < 250 nM | < 250 nM |
